Test results reported in US7223733B2, “Modulation of TRIP-Br function and method of treating proliferative disorders” (National University of Singapore, priority 2004, dated 2007).
[invdT] = inverted (3'-3') thymidine

Columns and labels:
[1] = system: hTRIP-Br2 mRNA; test: Semi-quantitative RT-PCR of intact hTRIP-Br2 transcripts in WI-38 cells; format: cell-based, human; conditions: WI-38, 0.1 μM, 16 h post-stimulation with 10% FBS
Protocol: (§1) DNA enzyme transfection. WI-38 cells were rendered quiescent by cultivation in serum-free medium for 72 h before being transfected with DNA enzyme (0.1 μM) using Superfect as reported previously (Santiago, F. S., et al. Nat Med 5, 1264-1269 (1999)) in accordance to manufacturer's recommendations (Qiagen).
(§2) Semi-quantitative RT-PCR. Following various treatments, WI-38 cells in 6-well culture dish were subjected to total RNA extraction using the TRIZOL® Reagent (Life Technologies). Total RNA (4 μg) was reversed transcribed using oligo-dT and M-MLV reverse transcriptase in a total reaction volume of 20 μl. Polymerase Chain Reactions (PCR) were carried out on 3 μl cDNA sample in the presence of […] deoxyribonucleotide triphosphates (dNTPs) and 40 μM of specific primer pairs in a total reaction volume of 50 μl. […] Post-PCR samples were analyzed by agarose gel electrophoresis.
(§3) FIG. 11: (A) hTRIP-Br1 and hTRIP-Br2 expression is serum-inducible. […] At 24 h post-serum re-stimulation, semi-quantitative RT-PCR analysis was performed on total RNA to assess hTRIP-Br1 and hTRIP-Br2 expression. β-actin was included as an internal control. […] Semi-quantitative RT-PCR analysis was performed on total RNA to assess hTRIP-Br1 and hTRIP-Br2 expression. β-actin was included as an internal control. […]

[2] = system: hTRIP-Br1 mRNA; test: Semi-quantitative RT-PCR of intact hTRIP-Br1 transcripts in WI-38 cells; format: cell-based, human; conditions: WI-38, 0.1 μM, 16 h post-stimulation with 10% FBS
Protocol: as §1, §2, §3

Row | Substance | serum-inducible steady-state hTRIP-Br2 mRNA level [1] | serum-inducible steady-state hTRIP-Br1 mRNA level [2]
1 | 5′-T TACCCAACAGGCTAGCTACAACGAATATCACA-3′ (DNA TTACCCAACAGGCTAGCTACAACGAATATCACA; DNA, 3' [invdT], backbone not given here) [E-Br2] | efficiently down-regulated | –
2 | 5′-T TGCTCAGCAGGCTAGCTACAACGACTTGCTCA-3′ (DNA TTGCTCAGCAGGCTAGCTACAACGACTTGCTCA; DNA, 3' [invdT], backbone not given here) [E-Br1] | – | efficiently down-regulated
